Assay results as given in patent US20110191867A1.
Where two headings read alike, the source gives them in different places.

Tests used:
[1] = system: serum antibodies of test subjects
natural human antibodies [2] = type: binding
natural human antibodies [3] = system: natural human antibodies
[4] = system: serum antibodies of test subjects; remark: listed apart in the source
[5] = system: commercial polyclonal antibody from rabbit; test: ELISA control: commercial polyclonal antibody binding to peptide coated on a maleimide plate
From the text: A commercial peptide […] (HA11-peptide), which has been used as a recognition tag on recombinant proteins was used as a control and for testing of analysis of binding between a free core peptide and human antibodies. Due to restricted availability of at least N-terminal sequence the peptide would not be very effective in immunization against the viral as therapy. This peptide is known to be antigenic in animals under immunization conditions and antibodies including polyclonals from rabbit, mice etc.

Substance | immune response of the 6 sera, order of reactivity (natural human antibodies [2]) | immune response of the 6 sera, order of reactivity (natural human antibodies [3]) | reaction with serum of test subject [4] | other results
Biotin-aminocaproyl-CRPWVRGVC [Peptide 4B] | – | – | – | antibody binding, cyclic peptide compared with corresponding linear peptide ([1]; sera S1B-S8B, FIG. 8): bind generally more strongly antibodies than the corresponding linear peptide 3
Biotin-aminohexanoyl-SYACKR [Peptide P2-N] | reacted with sera similarily but reactions with serum 5 was weaker and the serum 6 showed the strongest reponse | sera 2 and 5 showed strongest immune response before sera 3, 4 and 6, while serum 1 showed weakest reaction | – | –
Biotin-aminocaproyl-CRPRVRNICG-NH4 [Peptide 1C] | – | – | weaker reaction | comparison of the cyclic and linear peptide, reactivity with sera [4]: more reactive with all subjects except S3B; reactivity with sera of test subjects [4]: Strong responses were observed from the serum of test subjects S5B an S7B
CYPYDVPDYA [HA11-N Cys, commercial peptide used as a recognition tag on recombinant proteins, used as a control] | – | – | – | binding of commercial polyclonal antibody from rabbit to the peptide [5]: effective binding
Biotin-aminocaproyl-CRPKVRDQC [Peptide 3B] | – | – | weaker reaction | serum antibody response ([1]; person S5B, vaccinated against influenza, FIG. 5): unusually high response
Biotin-aminohexanoyl-SKAYSNC [Peptide P1-N] | reacted with sera in the order from strongest to weaker: 6, 3, 4, and 2, while 1 and 5 were weakly or non-reactive | sera 3 and 4 showed strongest immune response before serum 2, while sera 1, 5 and 6 were weakly or non-reactive | – | –
